These results are taken from ChEMBL document CHEMBL3751838, “Cytotoxic Activity of Salicylic Acid-Containing Drug Models with Ionic and Covalent Binding” (ACS Med Chem Lett, 2015).

Broadly, the IC50 is the concentration that inhibits the measured activity by half. A high value points to lower potency. For orientation: solubility means the concentration that dissolves in the medium under given conditions.

Data set [1] is described as follows: Cytotoxicity against human Caco2 cells after 24 hrs by MTT assay. The class given is functional, cell-based, Caco-2.
The next data set can be described thus: cells. The note with it: Homo sapiens, 3215LS, 24 h. The class given is ADME, cell-based.
Data set [2] in a line: Aqueous solubility of compound at room temperature. The class given is physicochemical. The note with it: water.

Description for cells: Cytotoxicity against human 3215LS cells after 24 hrs by MTT assay

For the compound `CCCCn1cc[n+](C)c1` [listing 1 of 3 here], half-maximal inhibition in data set [1] (caco-2) (IC50) required 18.8 mM. In data set [1] (caco-2), `CCCCCCn1cc[n+](C)c1` [listing 1 of 2 here] came in with an IC50 of 6.21 mM.

On to `CCn1cc[n+](C)c1` [listing 1 of 2 here], for which inhibition in data set [1] (caco-2) was half-maximal at 32.1 mM (IC50).

As for `CCCCn1cc[n+](C)c1` [listing 2 of 3 here], 11.2 mM corresponded to half-maximal inhibition in data set [1] (caco-2) (IC50). As to `CCCCCCn1cc[n+](C)c1` [listing 2 of 2 here], in data set [1] (caco-2), it took 1.96 mM to reach half-maximal inhibition (IC50). With `C[n+]1ccn(CCCOC(=O)c2ccccc2O)c1`, the half-maximal inhibitory concentration (IC50) in the data set “cells” stood at 3.19 mM; in data set [1] (Homo sapiens, Caco-2, 24 h), 2.55 mM. Take `C[n+]1ccn(CCOC(=O)c2ccccc2O)c1.[Cl-]`: the half-maximal inhibitory concentration (IC50) in data set [1] (caco-2) turned out to be 3.82 mM. In addition, the solubility in data set [2] was found to be 267 mg/mL. On to `COC(=O)[C@H](C)N`, for which the IC50 in “cells” was determined as 2.63 mM; in data set [1] (Homo sapiens, Caco-2, 24 h), 6.24 mM. As for `C[n+]1ccn(CCOC(=O)c2ccccc2O)c1`, inhibition in data set [1] (Homo sapiens, Caco-2, 24 h) was half-maximal at 4.77 mM (IC50).

In data set [1] (caco-2), `CCn1cc[n+](C)c1` [listing 2 of 2 here] gave an IC50 of 5.97 mM. `CCCCn1cc[n+](C)c1` [listing 3 of 3 here] came in with a half-inhibitory concentration (IC50) in data set [1] (caco-2) of 4.34 mM. On to `O=C(O)c1ccccc1O` [SALICYLIC ACID], for which the IC50 in the data set “cells” came out at 1.14 mM; in data set [1] (Homo sapiens, Caco-2, 24 h), 5 mM.
